Measured values as given in US4011182A, “Cyclic undecapeptide analogs of somatostatin and intermediates” (American Home Products Corporation, priority 1975, dated 1977).
Read-outs that look alike come from different tables or passages of the source. Where a SMILES comes first, the peptide text is derived from it.

How the values were obtained:
[1] = system: insulin; assay: In vivo assay of simultaneous release of growth hormone, insulin and glucagon (pentobarbital, arginine): insulin; parameters: species or system rats
Procedure: (§1) Another test was conducted with the compound of Example 5 to determine its effect upon insulin and glucagon levels. The in vivo assay determining simultaneous release of growth hormone, insulin and glucagon was carried out by injecting three groups of male rats weighing about 200 to 250 g. (9 animals per group) with pentobarbital […], a subcutaneous injection of SRIF at a dose of 0.2 mg/kg to another group of rats and a subcutaneous injection of saline solution to the third group of rats. Ten minutes after such injection the rats receive 150 mg. arginine in 0.5 ml. saline directly in the heart. Five minutes later the rats are decapitated, the blood collected and various radioimmunoassays are run.

[2] = system: growth hormone; assay: Growth hormone level by radioimmunoassay in nembutal-treated rats after subcutaneous injection; type: in vivo
Procedure: The growth hormone activities of the compounds of Example 5 was determined by injecting rats weighing about 200-250 g. first with nembutal intraperitoneally at a dose of 50 mg/kg then after 5 minutes injecting the rats subcutaneously with a solution of the compound of Example 5 in saline at a dose of 2 mg/kg per rat. Blood samples are taken 15 minutes after injection with the compound of Example 5 and the growth hormone level determined by radioimmunoassay. […] The foregoing experiment was repeated but the dose of the compound of Example 5 was raised to 2.38 mg/kg and the blood was sampled 2 hours after injection.

[3] = system: glucagon; assay: In vivo assay of simultaneous release of growth hormone, insulin and glucagon (pentobarbital, arginine): glucagon; parameters: species or system rats
Procedure: as §1, with “pentobarbital intraperitoneally at a dose of 50 mg/kg per rat followed 15 minutes” for “pentobarbital”

[4] = system: growth hormone
Procedure: Another test was conducted with the compound of Example 5 to determine its effect upon insulin and glucagon levels. The in vivo assay determining simultaneous release of growth hormone, insulin and glucagon was carried out by injecting three groups of male rats weighing about 200 to 250 g. (9 animals per group) with pentobarbital intraperitoneally at a dose of 50 mg/kg per rat followed 15 minutes later by a subcutaneous injection of the compound of Example 5 at a dose of 2.7 mg/kg to one group of rats, a subcutaneous injection of SRIF at a dose of 0.2 mg/kg to another group of rats and a subcutaneous injection of saline solution to the third group of rats. Ten minutes after such injection the rats receive 150 mg. arginine in 0.5 ml. saline directly in the heart. Five minutes later the rats are decapitated, the blood collected and various radioimmunoassays are run.

[5] = male rats, 2.7 mg/kg subcutaneously, arginine stimulated

In the case of C[C@@H](O)[C@@H]1NC(=O)[C@H](Cc2ccccc2)NC(=O)[C@H]([C@@H](C)O)NC(=O)[C@H](CCCCN)NC(=O)[C@H](Cc2c[nH]c3ccccc23)NC(=O)[C@H](Cc2ccccc2)NC(=O)[C@H](Cc2ccccc2)NC(=O)[C@H](CC(N)=O)NC(=O)[C@H](CCCCN)NC(=O)CC[C@@H](C(=O)O)NC(=O)[C@H](CO)NC1=O [Example 5, L-lysyl-L-asparaginyl-L-phenylalanyl-L-phenylalanyl-L-tryptophyl-L-lysyl-L- threonyl-L-phenylalanyl-L-threonyl-L-seryl-L-glutamyl (cyclo α-lysyl to γ-glutamyl) peptide] (HELM PEPTIDE1{K.N.F.F.W.K.T.F.T.S.E}$PEPTIDE1,PEPTIDE1,1:R1-11:R3$$$V2.0), the insulin levels [1, 5] is reported as “neither glucagon nor insulin levels were lowered”, the growth hormone level ([2]; rats, 2 mg/kg subcutaneously, blood 15 minutes after injection, control 132 ± 20) is reported as 79 ± 14 ng/mL and the growth hormone level ([2]; rats, 2.38 mg/kg subcutaneously, blood 2 hours after injection, control 244 ± 38) is reported as 89 ± 23 ng/mL. For the same compound, the glucagon levels [3, 5] was “neither glucagon nor insulin levels were lowered”.

With “L-Lysyl-L-asparaginyl-L-phenylalanyl-L-phenylalanyl-D-tryptophyl-L-lysyl-L- threonyl-L-phenylalanyl-L-threonyl-L-seryl-glutamyl-(cyclo-α-lysyl to γ-glutamyl)peptide [Example 6]” the Insulin ([1]; experiment 1, dose 3,000 μg/kg, control 194±17) was 152±13 μU/ml, the Insulin ([1]; experiment 3, dose 3,000 μg/kg, control 183±19) was 93±9 μU/ml and the GH ([4]; experiment 1, dose 3,000 μg/kg, control 247±52) was 61 ± 7 ng/mL. It also gave a GH ([4]; experiment 2, dose 12 μg/kg, control 315±22) of 192 ± 29 ng/mL, a growth hormone level ([2]; rats, 1,500 μg/kg, after four hours, control 182 ± 49) of 34 ± 11 nanograms per milliliter and a growth hormone level ([2]; rats, 1,500 μg/kg, two hours after administration, control 180 ± 27) of 18 ± 4 nanograms per milliliter. It also gave a Glucagon ([3]; experiment 3, dose 3,000 μg/kg, control 129±9) of 107±9 picog/ml.
